# According to US7943618B2, “Btk protein kinase inhibitors” (Roche Palo Alto LLC, priority 2007, dated 2011):
# Target: T1, Btk enzyme (His-tagged, full-length) (Homo sapiens, UniProt Q06187)
# T1 construct: 5-10 nM Btk enzyme (His-tagged, full-length); His
# Assay: Bruton's Tyrosine Kinase (Btk) Inhibition Assay (33P filtration capture)
# Format: biochemical
# Settings: Bruton's tyrosine kinase Assay (Example 34), 100 μM ATP
# From the text: Bruton's Tyrosine Kinase (Btk) Inhibition Assay
# The assay is a capture of radioactive ^33P phosphorylated product through filtration. The interactions of Btk, biotinylated SH2 peptide substrate (Src homology), and ATP lead to phosphorylation of the peptide substrate. Biotinylated product is bound streptavidin sepharose beads. All bound, radiolabeled products are detected by scintillation counter.
# Plates assayed are 96-well polypropylene (Greiner) and 96-well 1.2 μm hydrophilic PVDF filter plates (Millipore).
# IC50 determinations are calculated from 10 data points per compound utilizing data produced from a standard 96-well plate assay template. One control compound and seven unknown inhibitors were tested on each plate and each plate was run twice. […] The control compound was staurosporine. Background was counted in the absence of peptide substrate. Total activity was determined in the presence of peptide substrate. The following protocol was used to determine Btk inhibition.
# 1) Sample preparation: The test compounds were diluted at half-log increments in assay buffer (imidazole, glycerol-2-phosphate, EGTA, MnCl2, MgCl2, BSA).
# 2) Bead preparation • a.) rinse beads by centrifuging at 500 g • b.) reconstitute the beads with PBS and EDTA to produce a 20% bead slurry
# 3) Pre-incubate reaction mix without substrate (assay buffer, DTT, ATP, ^33P ATP) and mix with substrate (assay buffer, DTT, ATP, ^33P ATP, peptide substrate) 30° C. for 15 min.
# 4) To start assay, pre-incubate 10 μL Btk in enzyme buffer (imidazole, glycerol-2-phosphate, BSA) and 10 μL of test compounds for 10 min at RT.
# 5) Add 30 μL reaction mixture without or with substrate to Btk and compounds.
# 6) Incubate 50 μL total assay mix for 30 min at 30° C.
# 7) Transfer 40 μL of assay to 150 μL bead slurry in filter plate to stop reaction.
# 8) Wash filter plate after 30 min, with following steps • a. 3×250 μL NaCl • b. 3×250 μL NaCl containing 1% phosphoric acid • c. 1×250 μL H2O
# 9) Dry plate for 1 h at 65° C. or overnight at RT
# 10) Add 50 μL microscint-20 and count ^33P cpm on scintillation counter.
# Calculate percent activity from raw data in cpm percent activity=(sample−bkg)/(total activity−bkg)×100
# Calculate IC50 from percent activity, using one-site dose response sigmoidal model y=A+((B−A)/(1+((x/C)^D))))
# T1 sequence (Q06187 whole entry): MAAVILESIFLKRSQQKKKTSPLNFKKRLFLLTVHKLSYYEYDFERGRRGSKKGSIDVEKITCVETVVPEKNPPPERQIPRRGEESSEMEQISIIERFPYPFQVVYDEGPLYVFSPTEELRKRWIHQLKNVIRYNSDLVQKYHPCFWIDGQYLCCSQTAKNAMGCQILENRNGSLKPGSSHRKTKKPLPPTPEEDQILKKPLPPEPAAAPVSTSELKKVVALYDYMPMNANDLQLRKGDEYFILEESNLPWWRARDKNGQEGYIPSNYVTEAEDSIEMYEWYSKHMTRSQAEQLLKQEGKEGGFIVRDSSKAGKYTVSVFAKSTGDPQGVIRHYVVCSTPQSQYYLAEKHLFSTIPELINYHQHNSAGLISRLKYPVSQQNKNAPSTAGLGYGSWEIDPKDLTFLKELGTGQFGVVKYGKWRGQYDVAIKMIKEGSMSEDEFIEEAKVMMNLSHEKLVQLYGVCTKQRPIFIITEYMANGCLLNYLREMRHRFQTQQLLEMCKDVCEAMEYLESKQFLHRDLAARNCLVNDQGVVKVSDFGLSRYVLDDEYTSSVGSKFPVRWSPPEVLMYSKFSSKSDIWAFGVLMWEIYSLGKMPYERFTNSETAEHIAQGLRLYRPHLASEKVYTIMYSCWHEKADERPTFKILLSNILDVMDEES
IC50 (Table I pyridazinones),IC50 (Table II pyridinones),SMILES
0.16 µM,,COC(=O)c1ccc(Nc2cc(-c3cccc(NC(=O)c4ccc(C(C)(C)C)cc4)c3C)nn(C)c2=O)nc1 [Compound I-9]
1.06 µM,,Cc1c(NC(=O)c2ccc(C(C)(C)C)cc2)cccc1-c1cc(Nc2ccnc(S(C)(=O)=O)n2)c(=O)n(C)n1 [Compound I-13]
0.374 µM,,Cc1c(NC(=O)c2ccc(C(C)(C)O)cc2)cccc1-c1cc(Nc2ccc(C(=O)N3CCOCC3)cn2)c(=O)n(C)n1 [Compound I-15]
0.143 µM,,"Cc1c(NC(=O)c2ccc(C(C)(C)C)cc2)cccc1-c1cc(Nc2ccnc(OCC3CCNC3)n2)c(=O)n(C)n1 (stereo not drawn) [Compound I-19, 4-tert-Butyl-N-(2-methyl-3-{1-methyl-6-oxo-5-[2-(pyrrolidin-3-ylmethoxy)-pyrimidin-4-ylamino]-1,6-dihydro-pyridazin-3-yl}-phenyl)-benzamide]"
0.052 µM,,"Cc1c(NC(=O)c2ccc(C(C)(C)C)cc2)cccc1-c1cc(Nc2ccnc(N3CCC(O)C3)n2)c(=O)n(C)n1 (stereo not drawn) [Compound I-22, 4-tert-Butyl-N-(3-{5-[2-(3-hydroxy-pyrrolidin-1-yl) -pyrimidin-4-ylamino]-1-methyl-6-oxo-1-6-dihydro-pyridazin-3-yl}-2-methyl-phenyl)-benzamide]"
0.034 µM,,"Cc1c(NC(=O)c2ccc(N(C)C)cc2)cccc1-c1cc(Nc2ccc(C(=O)N3CCC(O)CC3)cn2)c(=O)n(C)n1 [Compound I-28, 4-Dimethylamino-N-(3-{5-[5-(4-hydroxy-piperidine-1-carbonyl)-pyridin-2-ylamino]-1-methyl-6-oxo-1,6-dihydro-pyridazin-3-yl}-2-methyl-phenyl)-benzamide]"
1.72 µM,,Cn1nc(-c2cccc(CC(=O)NCCC(O)C(C)(C)C)c2)cc(Nc2ccc(C(=O)N3CCOCC3)cn2)c1=O (stereo not drawn) [Compound I-29]
0.155 µM,,Cn1nc(-c2cccc(CC(=O)N3Cc4ccccc4C3)c2)cc(Nc2ccc(C(=O)N3CCC(O)CC3)cn2)c1=O [Compound I-31]
0.206 µM,,"Cn1nc(-c2cccc(CC(=O)c3ccc(C(C)(C)C)cc3)c2)cc(Nc2ccc(C(=O)N3CCOCC3)cn2)c1=O [Compound I-37, 6-{3-[2-(4-tert-Butyl-phenyl)-2-oxo-ethyl]-phenyl}-2-methyl-4-[5-(morpholine-4-carbonyl)-pyridin-2-ylamino]-2H-pyridazin-3-one]"
61.6 µM,,CC(=O)N1CCN(C(=O)Cc2cccc(-c3cc(Nc4ccc(C(=O)N5CCOCC5)cn4)c(=O)n(C)n3)c2)CC1 [Compound I-44]
< 0.01 µM,,Cn1nc(-c2cccc(NC(=O)c3ccc(C4CC4)cc3)c2CO)cc(Nc2ccc(C(=O)N3CCOCC3)cn2)c1=O [Compound I-46]
,0.013 µM,CCNC(=O)Nc1cc(-c2cccc(NC(=O)c3ccc(C(C)(C)C)cc3)c2C)cn(C)c1=O [II-5]
,2.31 µM,"CNC(=O)Nc1cc(-c2cccc(NC(=O)c3ccc(N(C)C)nc3)c2C)cn(C)c1=O [II-15, 6-Dimethylamino-N-{2-methyl-3-[1-methyl-5-(3-methyl-ureido)-6-oxo-1,6-dihydro-pyridin-3-yl]-phenyl}-nicotinamide]"
,0.31 µM,CNC(=O)Nc1cc(-c2cccc(NC(=O)c3ccc(N4CCCCC4)nc3)c2C)cn(C)c1=O [II-19]
,9.93 µM,"CNC(=O)Nc1cc(-c2cccc(NC(=O)c3ccc4c(ccn4C)c3)c2C)cn(C)c1=O [II-23, 1-Methyl-1H-indole-5-carboxylic acid{2-methyl-3-[1-methyl-5-(3-methyl-ureido)-6-oxo-1,6-dihydro-pyridin-3-yl]-phenyl}-amide]"
,0.131 µM,CNC(=O)Nc1cc(-c2cccc(NC(=O)c3ccc(C(C)(C)C)cc3)c2)cn(C)c1=O [II-27]
,0.23 µM,"CNC(=O)Nc1cc(-c2cccc(NC(=O)c3ccc(C(C)(C)O)cc3)c2C)cn(C)c1=O [II-28, 4-(1-Hydroxy-1-methyl-ethyl)-N-{2-methyl-3-[1-methyl-5-(3-methyl-ureido)-6-oxo-1,6-dihydro-pyridin-3-yl]-phenyl}-benzamide]"
,14.8 µM,CNC(=O)Nc1cc(-c2cccc(CC(=O)N3Cc4cc(Cl)c(Cl)cc4C3)c2)cn(C)c1=O [II-31]
,0.681 µM,"CNC(=O)Nc1cc(-c2cccc(NC(=O)c3ccc(C(C)(C)C#N)cc3)c2C)cn(C)c1=O [II-42, 4-(Cyano-dimethyl-methyl)-N-{2-methyl-3-[1-methyl-5-(3-methyl-ureido)-6-oxo-1,6-dihydro-pyridin-3-yl]-phenyl}-benzamide]"
,3.44 µM,CNC(=O)Nc1cc(-c2cccc(CC(=O)N3Cc4ccc(F)cc4C3)c2)cn(C)c1=O [II-46]
,< 0.01 µM,"CN(C)c1ccc(C(=O)Nc2cccc(-c3cc(Nc4ccc(C(=O)N5CCOCC5)cn4)c(=O)n(C)c3)c2CO)cc1 [II-49, 4-Dimethylamino-N-(2-hydroxymethyl-3-{1-methyl-5-[5-(morpholine-4-carbonyl)-pyridin-2-ylamino]-6-oxo-1,6-dihydro-pyridin-3-yl}-phenyl)-benzamide]"

IC50 (Table I pyridazinones),IC50 (Table II pyridinones),SMILES
,< 0.01 µM,Cn1cc(-c2cccc(NC(=O)c3ccc(C(C)(C)F)cc3)c2CO)cc(Nc2ccc(C(=O)N3CCOCC3)cn2)c1=O [II-52]
,0.068 µM,C[C@H](O)CNC(=O)Nc1cc(-c2cccc(NC(=O)c3ccc(C4CC4)cc3)c2CO)cn(C)c1=O [II-54]
,0.085 µM,Cn1cc(-c2cccc(NC(=O)c3ccc(C(F)(F)F)cc3)c2CO)cc(Nc2ccc(C(=O)N3CCOCC3)cn2)c1=O [II-55]
,0.02 µM,CN(C)c1ccc(C(=O)Nc2cccc(-c3cc(Nc4ccccn4)c(=O)n(C)c3)c2CO)cc1 [II-59]
,< 0.01 µM,CN(C)c1ccc(C(=O)Nc2cccc(-c3cc(Nc4ccc(C(=O)N5CCC(N(C)C)CC5)cn4)c(=O)n(C)c3)c2CO)cc1 [II-60]
,0.031 µM,Cn1cc(-c2cccc(NC(=O)c3ccc(Br)cc3)c2CO)cc(Nc2ccc(C(=O)N3CCOCC3)cn2)c1=O [II-63]
,0.05 µM,Cn1cc(-c2cccc(NC(=O)c3ccc(C4(F)CC4)cc3)c2CO)cc(Nc2ccccn2)c1=O [II-64]
,0.015 µM,CCNC(=O)Nc1cc(-c2cccc(NC(=O)c3ccc(C4(F)CC4)cc3)c2CO)cn(C)c1=O [II-65]
,0.024 µM,COC(C)(C)c1ccc(C(=O)Nc2cccc(-c3cc(Nc4ccc(C(=O)N5CCOCC5)cn4)c(=O)n(C)c3)c2CO)cc1 [II-66]
,0.77 µM,Cn1cc(-c2cccc(NC(=O)c3ccccc3)c2CO)cc(Nc2ccc(C(=O)N3CCOCC3)cn2)c1=O [II-67]
,0.071 µM,Cn1cc(-c2cccc(NC(=O)c3ccc(C(F)(C(F)(F)F)C(F)(F)F)cc3)c2CO)cc(Nc2ccc(C(=O)N3CCOCC3)cn2)c1=O [II-68]
,0.076 µM,C#Cc1ccc(C(=O)Nc2cccc(-c3cc(Nc4ccc(C(=O)N5CCOCC5)cn4)c(=O)n(C)c3)c2CO)cc1 [II-69]
,< 0.01 µM,"Cn1cc(-c2cccc(NC(=O)c3ccc4c(c3)OCC4(C)C)c2CO)cc(Nc2ccc(C(=O)N3CCOCC3)cn2)c1=O [II-71, 3,3-Dimethyl-2,3-dihydro-benzofuran-6-carboxylic acid (2-hydroxymethyl-3-{1-methyl-5-[5-(morpholine-4-carbonyl)-pyridin-2-ylamino]-6-oxo-1,6-dihydro-pyridin-3-yl}-phenyl)-amide]"
,< 0.01 µM,"Cn1cc(-c2cccc(NC(=O)c3ccc(C4(C(F)F)CC4)cc3)c2CO)cc(Nc2ccc(C(=O)N3CCOCC3)cn2)c1=O [II-72, 4-(1-Difluoromethyl-cyclopropyl)-N-(2-hydroxymethyl-3-{1-methyl-5-[5-(morpholine-4-carbonyl)-pyridin-2-ylamino]-6-oxo-1,6-dihydro-pyridin-3-yl}-phenyl)-benzamide]"
,0.05 µM,Cn1cc(-c2cccc(NC(=O)c3ccc(C(Cl)(Cl)Cl)cc3)c2CO)cc(Nc2ccc(C(=O)N3CCOCC3)cn2)c1=O [II-74]
,< 0.01 µM,Cn1cc(-c2cccc(NC(=O)c3ccc(C4(Cl)CC4)cc3)c2CO)cc(Nc2ccc(C(=O)N3CCOCC3)cn2)c1=O [II-75]
,0.04 µM,Cn1cc(-c2cccc(NC(=O)c3ccc([Si](C)(C)C)cc3)c2CO)cc(Nc2ccc(C(=O)N3CCOCC3)cn2)c1=O [II-76]
,0.04 µM,CCNC(=O)Nc1cc(-c2cccc(NC(=O)c3ccc(C4CC4)cc3)c2CO)cn(C)c1=O [II-77]
,0.214 µM,Cn1cc(-c2cccc(NC(=O)c3ccc(C4CC4)cc3)c2CO)cc(NC(=O)NCCc2ccccn2)c1=O [II-78]
,0.16 µM,Cn1cc(-c2cccc(NC(=O)c3ccc(C4CC4)cc3)c2CO)cc(NC(=O)NCCc2cccnc2)c1=O [II-79]
,0.043 µM,CN(C)CCCNC(=O)Nc1cc(-c2cccc(NC(=O)c3ccc(C4CC4)cc3)c2CO)cn(C)c1=O [II-80]
